According to ChEMBL document CHEMBL5316371, “Paraconulones A-G: Eremophilane Sesquiterpenoids from the Marine-Derived Fungus Paraconiothyrium sporulosum DL-16” (J Nat Prod, 2023):

Experiments:
[1] = test system: BV-2; assay: Antiinflammatory activity against mouse BV-2 cells assessed as reduction in LPS-induced NO production incubated for 24 hrs by Griess reagent based assay; assay type: functional, cell-based; settings: BV-2, 24 h
[2] = Cytotoxicity against mouse BV-2 cells assessed as reduction in cell growth; assay type: toxicity, cell-based

Structure (SMILES): C=C(C)[C@]1(O)C[C@@]2(C)C(=C[C@H]1O)C=CC(=O)[C@@H]2C
- IC50 [1]: 98 µM
- CC50 [2]: > 50 µM

Structure (SMILES): C[C@H](CO)C1=C[C@@]2(C)C(=CC1=O)C=CC(=O)[C@H]2C
- IC50 [1]: 40 µM
- CC50 [2]: > 50 µM

Structure (SMILES): CO[C@]12C=C3C=CC(=O)[C@H](C)[C@@]3(C)C[C@@]1(O)[C@H](C)CO2
- IC50 [1]: 4.6 µM
- CC50 [2]: > 50 µM

Structure (SMILES): CC(=O)OC[C@@H](C)[C@]1(O)C[C@@]2(C)C(=CC1=O)[C@@H]1[C@H](C(=O)[C@@H]2C)[C@H]2C(=O)[C@H](C)[C@@]3(C)C[C@@](O)([C@H](C)COC(C)=O)C(=O)C=C3[C@H]21
- IC50 [1]: 2.8 µM
- CC50 [2]: > 50 µM

Structure (SMILES): CO[C@]12C=C3C=C(C4=CC5=C[C@]6(OC)OC[C@@H](C)[C@]6(O)C[C@]5(C)[C@@H](C)C4=O)C(=O)[C@@H](C)[C@@]3(C)C[C@@]1(O)[C@H](C)CO2
- IC50 [1]: 6.9 µM
- CC50 [2]: > 50 µM

Structure (SMILES): CC(=O)OC[C@@H](C)[C@]1(O)C[C@@]2(C)C(=CC1=O)C=CC(=O)[C@H]2C
- IC50 [1]: 7.7 µM
- CC50 [2]: > 50 µM

Structure (SMILES): CC1=C(C)[C@]2(C=CC1=O)C[C@@]1(O)[C@H](C)CO[C@@]1(O)C2
- IC50 [1]: 8.1 µM
- CC50 [2]: > 50 µM

Structure (SMILES): C[C@H](CO)[C@@H]1C[C@@]2(C)C(=CC1=O)C=CC(=O)[C@H]2C
- IC50 [1]: 8.1 µM
- CC50 [2]: > 50 µM

Structure (SMILES): COc1cc(/C=C/C(=O)CC(=O)/C=C/c2ccc(O)c(OC)c2)ccc1O [CURCUMIN]
- IC50 [1]: 8.6 µM
- CC50 [2]: > 50 µM

Structure (SMILES): CO[C@]12C=C3C=CC(=O)[C@@H](C)[C@@]3(C)C[C@@]1(O)[C@H](C)CO2 [MICROSPHAEROPSISIN]
- IC50 [1]: 80 µM
- CC50 [2]: > 50 µM
